Reference: ChEMBL document CHEMBL2311450, “Synthesis and antibacterial evaluation of novel 11,4″-disubstituted azithromycin analogs with greatly improved activity against erythromycin-resistant bacteria” (2013)
Converted amounts (≈) assume the structure as drawn.

Assays:
Salmonella typhimurium [1] = assay: Antibacterial activity against Salmonella typhimurium TA102 by broth microdilution method; type: functional, Salmonella enterica subsp. enterica serovar Typhimurium; conditions: Salmonella enterica
Salmonella typhimurium [2] = assay: Antibacterial activity against Salmonella typhimurium TA98 by broth microdilution method; type: functional, Salmonella enterica subsp. enterica serovar Typhimurium; conditions: Salmonella enterica
Streptococcus pyogenes [3] = assay: Antibacterial activity against erythromycin-resistant Streptococcus pyogenes RE clinical isolate by broth microdilution method; type: functional
Streptococcus pyogenes [4] = assay: Antibacterial activity against erythromycin-susceptible Streptococcus pyogenes by broth microdilution method; type: functional
Staphylococcus aureus [5] = assay: Antibacterial activity against methicillin-susceptible Staphylococcus aureus ATCC 29213 by broth microdilution method; type: functional
Staphylococcus aureus [6] = assay: Antibacterial activity against penicillin-resistant Staphylococcus aureus clinical isolate by broth microdilution method; type: functional
Staphylococcus aureus [7] = assay: Antibacterial activity against erythromycin-susceptible Staphylococcus aureus ATCC 25923 by broth microdilution method; type: functional
Streptococcus pneumoniae [8] = assay: Antibacterial activity against erythromycin-resistant Streptococcus pneumoniae AB11 expressing erm and mef genes by broth microdilution method; type: functional
Streptococcus pneumoniae [9] = assay: Antibacterial activity against erythromycin-resistant Streptococcus pneumoniae A22072 expressing mef gene by broth microdilution method; type: functional
Streptococcus pneumoniae [10] = assay: Antibacterial activity against erythromycin-resistant Streptococcus pneumoniae B1 expressing erm gene by broth microdilution method; type: functional
Streptococcus pneumoniae [11] = assay: Antibacterial activity against erythromycin-susceptible Streptococcus pneumoniae ATCC 49619 by broth microdilution method; type: functional

Row | Structure (SMILES) | MIC (Salmonella typhimurium [1]) [µg/mL] | MIC (Salmonella typhimurium [2]) [µg/mL] | MIC (Streptococcus pyogenes [3]) [µg/mL] | MIC (Streptococcus pyogenes [4]) [µg/mL] | MIC (Staphylococcus aureus [5]) [µg/mL] | MIC (Staphylococcus aureus [6]) [µg/mL] | MIC (Staphylococcus aureus [7]) [µg/mL] | MIC (Streptococcus pneumoniae [8]) [µg/mL] | MIC (Streptococcus pneumoniae [9]) [µg/mL] | MIC (Streptococcus pneumoniae [10]) [µg/mL] | MIC (Streptococcus pneumoniae [11]) [µg/mL]
1 | CC[C@H]1OC(=O)[C@H](C)[C@@H](O[C@H]2C[C@@](C)(OC)[C@@H](OC(=O)NCCNC(=O)c3ccc(OC)c(OC)c3)[C@H](C)O2)[C@H](C)[C@@H](O[C@@H]2O[C@H](C)C[C@H](N(C)C)[C@H]2O)[C@](C)(O)C[C@@H](C)CN(C)[C@H](C)[C@@H](OC(=O)NCCc2ccccc2)[C@]1(C)O | 2 (≈ 1.74 µM) | 8 (≈ 6.98 µM) | 64 (≈ 55.8 µM) | 32 (≈ 27.9 µM) | 4 (≈ 3.49 µM) | 4 (≈ 3.49 µM) | 1 (≈ 0.872 µM) | 16 (≈ 14 µM) | 0.5 (≈ 0.436 µM) | 4 (≈ 3.49 µM) | 0.06 (≈ 0.0523 µM)
2 | CC[C@H]1OC(=O)[C@H](C)[C@@H](O[C@H]2C[C@@](C)(OC)[C@@H](OC(=O)NCCNC(=O)c3cc([N+](=O)[O-])cc([N+](=O)[O-])c3)[C@H](C)O2)[C@H](C)[C@@H](O[C@@H]2O[C@H](C)C[C@H](N(C)C)[C@H]2O)[C@](C)(O)C[C@@H](C)CN(C)[C@H](C)[C@@H](OC(=O)NCCc2ccccc2)[C@]1(C)O | 2 (≈ 1.7 µM) | 0.5 (≈ 0.425 µM) | 64 (≈ 54.4 µM) | 8 (≈ 6.8 µM) | 4 (≈ 3.4 µM) | 4 (≈ 3.4 µM) | 0.12 (≈ 0.102 µM) | 2 (≈ 1.7 µM) | 0.06 (≈ 0.051 µM) | 0.25 (≈ 0.213 µM) | 0.06 (≈ 0.051 µM)
3 | CC[C@H]1OC(=O)[C@H](C)[C@@H](O[C@H]2C[C@@](C)(OC)[C@@H](OC(=O)NCCCCNC(=O)c3ccc(OC)cc3)[C@H](C)O2)[C@H](C)[C@@H](O[C@@H]2O[C@H](C)C[C@H](N(C)C)[C@H]2O)[C@](C)(O)C[C@@H](C)CN(C)[C@H](C)[C@@H](OC(=O)NCc2ccccc2)[C@]1(C)O | 0.12 (≈ 0.106 µM) | 2 (≈ 1.77 µM) | 64 (≈ 56.6 µM) | 8 (≈ 7.08 µM) | 4 (≈ 3.54 µM) | 2 (≈ 1.77 µM) | 0.5 (≈ 0.442 µM) | 8 (≈ 7.08 µM) | 0.12 (≈ 0.106 µM) | 2 (≈ 1.77 µM) | 0.03 (≈ 0.0265 µM)
4 | CC[C@H]1OC(=O)[C@H](C)[C@@H](O[C@H]2C[C@@](C)(OC)[C@@H](OC(=O)NCCCCNC(=O)c3ccc(OC)cc3)[C@H](C)O2)[C@H](C)[C@@H](O[C@@H]2O[C@H](C)C[C@H](N(C)C)[C@H]2O)[C@](C)(O)C[C@@H](C)CN(C)[C@H](C)[C@@H](OC(=O)NCc2ccc(OC)cc2)[C@]1(C)O | 2 (≈ 1.72 µM) | 16 (≈ 13.8 µM) | 64 (≈ 55.2 µM) | 32 (≈ 27.6 µM) | 4 (≈ 3.45 µM) | 4 (≈ 3.45 µM) | 1 (≈ 0.862 µM) | 16 (≈ 13.8 µM) | 0.5 (≈ 0.431 µM) | 2 (≈ 1.72 µM) | 0.12 (≈ 0.103 µM)
5 | CC[C@H]1OC(=O)[C@H](C)[C@@H](O[C@H]2C[C@@](C)(OC)[C@@H](OC(=O)NCCCCNC(=O)c3ccc(OC)cc3)[C@H](C)O2)[C@H](C)[C@@H](O[C@@H]2O[C@H](C)C[C@H](N(C)C)[C@H]2O)[C@](C)(O)C[C@@H](C)CN(C)[C@H](C)[C@@H](OC(=O)NCc2ccc(C)c(C)c2)[C@]1(C)O | 1 (≈ 0.863 µM) | 8 (≈ 6.91 µM) | 64 (≈ 55.2 µM) | 16 (≈ 13.8 µM) | 8 (≈ 6.91 µM) | 4 (≈ 3.45 µM) | 1 (≈ 0.863 µM) | 16 (≈ 13.8 µM) | 0.5 (≈ 0.432 µM) | 4 (≈ 3.45 µM) | 0.12 (≈ 0.104 µM)
6 | CC[C@H]1OC(=O)[C@H](C)[C@@H](O[C@H]2C[C@@](C)(OC)[C@@H](OC(=O)NCCCCNC(=O)c3ccc(OC)cc3)[C@H](C)O2)[C@H](C)[C@@H](O[C@@H]2O[C@H](C)C[C@H](N(C)C)[C@H]2O)[C@](C)(O)C[C@@H](C)CN(C)[C@H](C)[C@@H](OC(=O)NCc2ccc(F)cc2)[C@]1(C)O | 1 (≈ 0.871 µM) | 8 (≈ 6.97 µM) | 64 (≈ 55.7 µM) | 32 (≈ 27.9 µM) | 8 (≈ 6.97 µM) | 4 (≈ 3.48 µM) | 1 (≈ 0.871 µM) | 16 (≈ 13.9 µM) | 0.25 (≈ 0.218 µM) | 4 (≈ 3.48 µM) | 0.06 (≈ 0.0522 µM)
7 | CC[C@H]1OC(=O)[C@H](C)[C@@H](O[C@H]2C[C@@](C)(OC)[C@@H](OC(=O)NCCCCNC(=O)c3ccc(OC)cc3)[C@H](C)O2)[C@H](C)[C@@H](O[C@@H]2O[C@H](C)C[C@H](N(C)C)[C@H]2O)[C@](C)(O)C[C@@H](C)CN(C)[C@H](C)[C@@H](OC(=O)NCc2ccc(F)c(F)c2)[C@]1(C)O | 32 (≈ 27.4 µM) | 4 (≈ 3.43 µM) | 64 (≈ 54.9 µM) | 8 (≈ 6.86 µM) | 4 (≈ 3.43 µM) | 4 (≈ 3.43 µM) | 0.5 (≈ 0.429 µM) | 16 (≈ 13.7 µM) | 0.12 (≈ 0.103 µM) | 4 (≈ 3.43 µM) | 0.03 (≈ 0.0257 µM)
8 | CC[C@H]1OC(=O)[C@H](C)[C@@H](O[C@H]2C[C@@](C)(OC)[C@@H](OC(=O)NCCCCNC(=O)c3ccc(OC)cc3)[C@H](C)O2)[C@H](C)[C@@H](O[C@@H]2O[C@H](C)C[C@H](N(C)C)[C@H]2O)[C@](C)(O)C[C@@H](C)CN(C)[C@H](C)[C@@H](OC(=O)NCCc2ccccc2)[C@]1(C)O | 0.5 (≈ 0.437 µM) | 4 (≈ 3.5 µM) | 64 (≈ 55.9 µM) | 16 (≈ 14 µM) | 0.5 (≈ 0.437 µM) | 4 (≈ 3.5 µM) | 1 (≈ 0.874 µM) | 4 (≈ 3.5 µM) | 0.25 (≈ 0.218 µM) | 1 (≈ 0.874 µM) | 0.06 (≈ 0.0524 µM)
9 | CC[C@H]1OC(=O)[C@H](C)[C@@H](O[C@H]2C[C@@](C)(OC)[C@@H](OC(=O)NCCCCNC(=O)c3ccc(OC)cc3)[C@H](C)O2)[C@H](C)[C@@H](O[C@@H]2O[C@H](C)C[C@H](N(C)C)[C@H]2O)[C@](C)(O)C[C@@H](C)CN(C)[C@H](C)[C@@H](OC(=O)NCCc2ccc(OC)cc2)[C@]1(C)O | 0.5 (≈ 0.426 µM) | 4 (≈ 3.41 µM) | 64 (≈ 54.5 µM) | 16 (≈ 13.6 µM) | 1 (≈ 0.851 µM) | 8 (≈ 6.81 µM) | 1 (≈ 0.851 µM) | 8 (≈ 6.81 µM) | 0.25 (≈ 0.213 µM) | 2 (≈ 1.7 µM) | 0.06 (≈ 0.0511 µM)
10 | CC[C@H]1OC(=O)[C@H](C)[C@@H](O[C@H]2C[C@@](C)(OC)[C@@H](OC(=O)NCCCCNC(=O)c3ccc(OC)cc3)[C@H](C)O2)[C@H](C)[C@@H](O[C@@H]2O[C@H](C)C[C@H](N(C)C)[C@H]2O)[C@](C)(O)C[C@@H](C)CN(C)[C@H](C)[C@@H](OC(=O)NCCc2ccc(F)cc2)[C@]1(C)O | 2 (≈ 1.72 µM) | 4 (≈ 3.44 µM) | 64 (≈ 55.1 µM) | 16 (≈ 13.8 µM) | 2 (≈ 1.72 µM) | 4 (≈ 3.44 µM) | 1 (≈ 0.86 µM) | 8 (≈ 6.88 µM) | 0.5 (≈ 0.43 µM) | 4 (≈ 3.44 µM) | 0.12 (≈ 0.103 µM)
11 | CC[C@H]1OC(=O)[C@H](C)[C@@H](O[C@H]2C[C@@](C)(OC)[C@@H](OC(=O)NCCCCNC(=O)c3ccc(OC)cc3)[C@H](C)O2)[C@H](C)[C@@H](O[C@@H]2O[C@H](C)C[C@H](N(C)C)[C@H]2O)[C@](C)(O)C[C@@H](C)CN(C)[C@H](C)[C@@H](OC(=O)NCCc2ccccc2Cl)[C@]1(C)O | 8 (≈ 6.79 µM) | 2 (≈ 1.7 µM) | 64 (≈ 54.3 µM) | 16 (≈ 13.6 µM) | 1 (≈ 0.848 µM) | 4 (≈ 3.39 µM) | 0.5 (≈ 0.424 µM) | 8 (≈ 6.79 µM) | 0.5 (≈ 0.424 µM) | 2 (≈ 1.7 µM) | 0.06 (≈ 0.0509 µM)
12 | CC[C@H]1OC(=O)[C@H](C)[C@@H](O[C@H]2C[C@@](C)(OC)[C@@H](OC(=O)NCCCCNC(=O)c3ccccc3OC)[C@H](C)O2)[C@H](C)[C@@H](O[C@@H]2O[C@H](C)C[C@H](N(C)C)[C@H]2O)[C@](C)(O)C[C@@H](C)CN(C)[C@H](C)[C@@H](OC(=O)NCCc2ccccc2)[C@]1(C)O | 1 (≈ 0.874 µM) | 4 (≈ 3.5 µM) | 16 (≈ 14 µM) | 16 (≈ 14 µM) | 32 (≈ 28 µM) | 8 (≈ 6.99 µM) | 0.5 (≈ 0.437 µM) | 16 (≈ 14 µM) | 2 (≈ 1.75 µM) | 8 (≈ 6.99 µM) | 0.12 (≈ 0.105 µM)
13 | CC[C@H]1OC(=O)[C@H](C)[C@@H](O[C@H]2C[C@@](C)(OC)[C@@H](OC(=O)NCCCCNC(=O)c3ccc(OC)c(OC)c3)[C@H](C)O2)[C@H](C)[C@@H](O[C@@H]2O[C@H](C)C[C@H](N(C)C)[C@H]2O)[C@](C)(O)C[C@@H](C)CN(C)[C@H](C)[C@@H](OC(=O)NCCc2ccccc2)[C@]1(C)O | 4 (≈ 3.41 µM) | 4 (≈ 3.41 µM) | 64 (≈ 54.5 µM) | 8 (≈ 6.81 µM) | 32 (≈ 27.2 µM) | 16 (≈ 13.6 µM) | 0.5 (≈ 0.426 µM) | 16 (≈ 13.6 µM) | 2 (≈ 1.7 µM) | 8 (≈ 6.81 µM) | 0.12 (≈ 0.102 µM)
14 | CC[C@H]1OC(=O)[C@H](C)[C@@H](O[C@H]2C[C@@](C)(OC)[C@@H](OC(=O)NNC(=O)c3ccc(Cl)cc3)[C@H](C)O2)[C@H](C)[C@@H](O[C@@H]2O[C@H](C)C[C@H](N(C)C)[C@H]2O)[C@](C)(O)C[C@@H](C)CN(C)[C@H](C)[C@@H](OC(=O)NCCc2ccccc2)[C@]1(C)O | 8 (≈ 7.32 µM) | 1 (≈ 0.915 µM) | 32 (≈ 29.3 µM) | 1 (≈ 0.915 µM) | 2 (≈ 1.83 µM) | 8 (≈ 7.32 µM) | 0.5 (≈ 0.458 µM) | 8 (≈ 7.32 µM) | 0.12 (≈ 0.11 µM) | 2 (≈ 1.83 µM) | 0.03 (≈ 0.0275 µM)
15 | CC[C@H]1OC(=O)[C@H](C)[C@@H](O[C@H]2C[C@@](C)(OC)[C@@H](OC(=O)NCCNC(=O)c3ccc(C)cc3)[C@H](C)O2)[C@H](C)[C@@H](O[C@@H]2O[C@H](C)C[C@H](N(C)C)[C@H]2O)[C@](C)(O)C[C@@H](C)CN(C)[C@H](C)[C@@H](OC(=O)NCCc2ccccc2)[C@]1(C)O | 2 (≈ 1.82 µM) | 2 (≈ 1.82 µM) | 64 (≈ 58.2 µM) | 8 (≈ 7.27 µM) | 2 (≈ 1.82 µM) | 8 (≈ 7.27 µM) | 1 (≈ 0.909 µM) | 8 (≈ 7.27 µM) | 0.12 (≈ 0.109 µM) | 2 (≈ 1.82 µM) | 0.06 (≈ 0.0545 µM)
